Reference: publication PMC6156755, “Using Human Plasma as an Assay Medium in Caco-2 Studies Improves Mass Balance for Lipophilic Compounds” (Pharmaceutical Research, 2018)
Like-named read-outs stand apart in the source and are kept apart here. Marks after values point to notes of the source that are not given here.

Legend:
[1] = cited from earlier work
[2] = Human plasma protein binding (ultracentrifugation or rapid equilibrium dialysis); type: in vitro ADME; details: for fraction unbound: neat human plasma, 37°C, concentration comparable to Caco-2 assay
Experimental: Binding was assessed using one of two methods: ultracentrifugation ([31]) using neat human plasma or rapid equilibrium dialysis (RED) using either neat or diluted plasma. […] To allow analysis with a single calibration curve, the total plasma and protein-free supernatant samples were ‘matrix-matched’ by taking aliquots of protein-free supernatant samples and adding to fresh tubes containing an equal volume of blank plasma, or taking aliquots of the total plasma samples and adding to fresh tubes containing an equal volume of Dulbecco’s phosphate-buffered saline (DPBS). In this way, the final composition of both the protein-free supernatant samples and the total plasma samples were ‘matched’ prior to the analysis against a common calibration curve prepared in a 1:1 mixture of human plasma and DPBS. All samples were then stored frozen at −80°C until analysis.
The holding plate was then placed on a plate shaker (set at 800 rpm; ThermoMixer C, Eppendorf) and maintained at 37°C under a 2% CO2 atmosphere. The dialysis was conducted for 6 h, assuming steady state was achieved by the end of this period ([32]). Samples were then removed from both the donor and dialysate chambers of each RED insert. […] Samples were matrix matched as described above (but using PBS buffer instead of DPBS) and stored at −80°C until analysis.
For the more lipophilic compounds with potential for very high binding, the RED method was used with diluted plasma to increase the chance of detecting concentrations in the dialysate samples. Diluted human plasma (10% v/v in pH 7.4 phosphate buffered saline) was spiked with each compound (at 10% of the concentration used for the Caco-2 experiment with neat plasma) and binding conducted as described above. The binding in neat plasma was then calculated by correcting for the dilution as described below.
For binding measurements in neat plasma by ultracentrifugation, the fraction unbound (fu) was calculated from the ratio of the average unbound concentration in protein free supernate (Cunbound) to the average total concentration in non-centrifuged plasma (Ctotal). The standard deviation (SD) for the fu value was calculated using the propagation of errors approach as described previously ([33]). For binding measurements using the RED method in neat plasma, fu was calculated from the ratio of the dialysate to total plasma concentration for each dialysis unit and the mean and SD calculated for replicate units (n = 3).
For RED binding assessments using 10% plasma, the fu − diluted for individual dialysis units was calculated in the same way as described above.

Caco-2 cell monolayer [3] = assay: Caco-2 permeability assay with pH 7.4 buffer or human plasma in both chambers; details: for Permeability Classification: criteria of Table V; for Mass balance: both directions (where assessed) and both media
[4] = as above; details: human; for Papp A→B: Caco-2, pH 7.4, Papp A-B; for Papp B→A: Caco-2, pH 7.4, Papp B-A; for efflux ratio: Caco-2, pH 7.4, Efflux ratio (B-A/A-B)
Caco-2 cell monolayer [5] = system: Caco-2 cell monolayer
in vitro = details: human
[6] = human, values from the literature
[7] = pH 7.4, read-out: fu (fraction unbound in plasma)
[8] = buffer (HBSS/HEPES pH 7.4) in both chambers
[9] = human plasma in both chambers, corrected for fu in donor

Compound | Human FA (fraction absorbed) [1, 6] [%] | fraction unbound [2, 7] | Mass balance A-B (Caco-2 cell monolayer [3]; [8]) [%] | Mass balance A-B (Caco-2 cell monolayer [3]; human plasma in both chambers) | Papp A→B ([4]; buffer pH 7.4 in both chambers) [×10⁻⁶ cm/s] | Papp A→B [4, 9] [×10⁻⁶ cm/s] | Mass balance B-A (Caco-2 cell monolayer [3]; buffer pH 7.4 in both chambers) [%] | Mass balance B-A (Caco-2 cell monolayer [3]; human plasma in both chambers) | Papp B→A [4, 9] [×10⁻⁶ cm/s] | Papp B→A ([4]; buffer pH 7.4 in both chambers) [×10⁻⁶ cm/s] | further results
COc1ccc2cc([C@H](C)C(=O)O)ccc2c1 [Naproxen, naproxen] | 100 | – | – | – | – | – | – | – | – | – | –
CC(=O)Nc1ccc(O)cc1 [Paracetamol, paracetamol] | 90 | 0.86 | 92 ± 3.8 | 92 ± 0.58% | 32 ± 2.9 | 37 ± 4 | – | – | – | – | –
Clc1ccc2c(N3CCN(CCCN4CCN(c5ccnc6cc(Cl)ccc56)CC4)CC3)ccnc2c1 [Piperaquine, piperaquine] | – | – | <10 | 100 ± 8.1% | – | > 300 | <10 | 100 ± 5.8% | > 300 | – | fraction unbound at 6 h ([2]; pH 7.4, RED with diluted human plasma (10% v/v), corrected for dilution, < values from LLOQ, read-out: fu (fraction unbound in plasma)): < 0.001; Mass balance A-B (Caco-2 cell monolayer [3]; buffer (HBSS/HEPES pH 7.4) in both chambers, listed as piperaquine): < 10%; Permeability Classification (Caco-2 cell monolayer [3]; buffer pH 7.4): Low (Papp < 0.839); Mass balance B-A (Caco-2 cell monolayer [3]; buffer pH 7.4 in both chambers, listed as piperaquine): < 10%; Permeability Classification (Caco-2 cell monolayer [3]; human plasma): High (Papp ≥ 8.15); Papp ([4]; Caco-2, pH 7.4): > 300 ×10⁻⁶ cm/s
CC(C)NCC(O)COc1cccc2ccccc12 (stereo not drawn) [Propranolol, propranolol] | – | 0.25 | – | – | 58 ± 4.5 | – | 97 ± 0.58 | 99 ± 2.3% | – | 52 ± 4 | Increase in Papp using plasma compared to buffer (Caco-2 cell monolayer [5]; human, Caco-2, pH 7.4): 2-3 fold; Papp A→B (in vitro; Caco-2, pH 7.4, Papp A-B): 120 ± 35 ×10⁻⁶ cm/s; Papp B→A (in vitro; Caco-2, pH 7.4, Papp B-A): 110 ± 19 ×10⁻⁶ cm/s
CNC(=C[N+](=O)[O-])NCCSCc1ccc(CN(C)C)o1 [Ranitidine, ranitidine] | 50 | 0.92 | 97 ± 11 | 92 ± 7.2% | 0.99 ± 0.11 | 2.1 ± 0.058 | – | – | – | – | Mass balance (Caco-2 cell monolayer [3]): > 80%
COC(=O)c1ccccc1-c1c2ccc(=N)cc-2oc2cc(N)ccc12 [Rhodamine 123, rhodamine 123] | – | 0.35 | 99 ± 11 | 98 ± 1.5% | 1.6 ± 0.32 | 1.2 ± 0.058 | 99 ± 1.2 | 92 ± 4.7% | 14 ± 1.5 | 9.7 ± 1.1 | efflux ratio ([4]; buffer pH 7.4 in both chambers): 6.1 ± 1.4; efflux ratio ([4]; human plasma in both chambers): 12 ± 1.4
CC(C)(C)NC(=O)[C@@H]1C[C@@H]2CCCC[C@@H]2CN1C[C@@H](O)[C@H](Cc1ccccc1)NC(=O)[C@H](CC(N)=O)NC(=O)c1ccc2ccccc2n1 [Saquinavir] | – | 0.04 | 76 ± 0.58 | 100 ± 7.2^b % | 2.4 ± 1.4 | 8.4 ± 2.5 | 60 ± 5.6 | 110 ± 7.5^b % | 140 ± 42 | 34 ± 2.1 | –
CC(C)(C)NCC(O)COc1ccc(NC(=O)NC2CCCCC2)cc1 (stereo not drawn) [Talinolol, talinolol] | – | 0.48 | – | – | – | – | – | – | – | – | –
OC[C@@H](O)[C@@H](O)[C@H](O)[C@H](O)CO [^14C-Mannitol, D-[1-^14C]-mannitol] | 26 | 0.83 | 99 ± 2.3 | 96 ± 4.0% | 0.29 ± 0.051 | 0.31 ± 0.081 | 99 ± 1.7 | 97 ± 5.2% | 0.43 ± 0.021 | 0.56 ± 0.026 | Mass balance (Caco-2 cell monolayer [3]): > 80%; efflux ratio ([4]; buffer pH 7.4 in both chambers): 1.9 ± 0.35; efflux ratio ([4]; human plasma in both chambers): 1.4 ± 0.37
lucifer yellow | – | – | – | – | – | – | – | – | – | – | fu (fraction unbound in plasma) ([2]; human, plasma): 0.51; Mass balance (Caco-2 cell monolayer [5]; Caco-2): > 80%; Mass balance A-B (Caco-2 cell monolayer [5]; Caco-2): 98 ± 4.7%; Papp A-B (Caco-2 cell monolayer [5]; Caco-2): 0.17 ± 0.069 10^−6 cm/s; Mass balance A-B (Caco-2 cell monolayer [5]; Caco-2, pH 7.4): 86 ± 6.7%; Papp A-B (Caco-2 cell monolayer [5]; Caco-2, pH 7.4): 0.21 ± 0.085 10^−6 cm/s; Human FA (fraction absorbed) ([1]; in vivo): 0%
